Measured values as given in ChEMBL document CHEMBL5338753, “Stapled Peptides as Direct Inhibitors of Nrf2-sMAF Transcription Factors” (J Med Chem, 2023).
Activity calls are given as the source filed them. The calls are words filed in the database; no cut-off is given here. Positions of bridges follow the written chain, without caps; N, C: chain ends. Non-standard residues stand in square brackets, D forms with d. Residues, ends and D or L forms follow the SMILES beside them. R5 = C=CCCC[C@@](C)(N)C(=O)O

What was measured:
[1] = Stability of compound assessed as proteinase K (unknown origin) mediated compound degradation at 55 uM measured upto 24 hrs by LC/MS analysis; assay type: ADME; conditions: human
A549 [2] = test: Downregulation of ABCC1 mRNA level in human A549 cells at 50 uM incubated for 72 hrs by qPCR assay; assay type: functional, cell-based
A549 [3] = test: Downregulation of TXN mRNA level in human A549 cells at 50 uM incubated for 72 hrs by qPCR assay; assay type: functional, cell-based
A549 [4] = test: Downregulation of HMOX1 mRNA level in human A549 cells at 50 uM incubated for 72 hrs by qPCR assay; assay type: functional, cell-based
[5] = biological target: T1, Nuclear factor erythroid 2-related factor 2 (Homo sapiens) (UniProt Q16236); test: Inhibition of Nrf2 transcriptional activity in human A549 cells assessed as reduction in glutathione level at 50 to 100 uM incubated for 24 hrs by GSH-Glo glutathione assay; assay type: cell-based; conditions: dose 50-100 µM
T1 sequence (whole entry): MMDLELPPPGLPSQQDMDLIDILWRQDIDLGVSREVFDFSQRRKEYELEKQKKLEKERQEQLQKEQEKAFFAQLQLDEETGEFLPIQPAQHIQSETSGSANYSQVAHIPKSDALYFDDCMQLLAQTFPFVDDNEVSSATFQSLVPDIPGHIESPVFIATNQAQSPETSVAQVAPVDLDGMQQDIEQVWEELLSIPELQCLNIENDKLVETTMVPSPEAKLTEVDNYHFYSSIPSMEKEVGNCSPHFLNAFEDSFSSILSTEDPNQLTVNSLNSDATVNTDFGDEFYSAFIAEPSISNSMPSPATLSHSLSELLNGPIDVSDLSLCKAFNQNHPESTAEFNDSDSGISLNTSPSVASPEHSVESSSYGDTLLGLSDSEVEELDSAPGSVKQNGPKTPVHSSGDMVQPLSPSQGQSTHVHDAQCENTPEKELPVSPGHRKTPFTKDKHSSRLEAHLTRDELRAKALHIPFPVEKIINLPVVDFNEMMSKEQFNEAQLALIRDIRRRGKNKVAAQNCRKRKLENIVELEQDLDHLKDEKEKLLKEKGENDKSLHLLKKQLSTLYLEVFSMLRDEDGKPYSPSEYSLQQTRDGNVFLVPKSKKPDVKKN

A549 [6] = test: Antiproliferative activity against human A549 cells assessed as cell death at 12.5 uM incubated for 72 hrs by MTT assay relative to control; assay type: functional
A549 [7] = test: Antiproliferative activity against human A549 cells assessed as cell death at 50 uM incubated for 72 hrs by MTT assay relative to control; assay type: functional
A549 [8] = test: Synergistic antiproliferative activity against human A549 cells assessed as cell death at 1.563 uM incubated for 72 hrs in presence of 6 uM cisplatin by MTT assay (reference value: 46%); assay type: functional
A549 [9] = test: Synergistic antiproliferative activity against human A549 cells assessed as cell death at 12.5 uM incubated for 72 hrs in presence of 6 uM cisplatin by MTT assay (reference value: 46%); assay type: functional
A549 [10] = test: Synergistic antiproliferative activity against human A549 cells assessed as cell death at 50 uM incubated for 72 hrs in presence of 6 uM cisplatin by MTT assay (reference value: 46%); assay type: functional
A549 [11] = test: Synergistic antiproliferative activity against human A549 cells assessed as cell death at 50 uM incubated for 72 hrs in presence of 12 uM cisplatin by MTT assay (reference value: 66%); assay type: functional
A549 [12] = test: Synergistic antiproliferative activity against human A549 cells assessed as cell death at 100 uM incubated for 72 hrs in presence of 12 uM cisplatin by MTT assay (reference value: 66%); assay type: functional
A549 [13] = test: Synergistic antiproliferative activity against human A549 cells assessed as combination index at 1.563 uM incubated for 72 hrs in presence of 6 uM cisplatin by Chou-Talalay method; assay type: functional
A549 [14] = test: Synergistic antiproliferative activity against human A549 cells assessed as combination index at 3.125 uM incubated for 72 hrs in presence of 6 uM cisplatin by Chou-Talalay method; assay type: functional
A549 [15] = test: Synergistic antiproliferative activity against human A549 cells assessed as combination index at 12.5 uM incubated for 72 hrs in presence of 6 uM cisplatin by Chou-Talalay method; assay type: functional
A549 [16] = test: Synergistic antiproliferative activity against human A549 cells assessed as combination index at 50 uM incubated for 72 hrs in presence of 6 uM cisplatin by Chou-Talalay method; assay type: functional
A549 [17] = test: Synergistic antiproliferative activity against human A549 cells assessed as combination index at 1.563 uM incubated for 72 hrs in presence of 12 uM cisplatin by Chou-Talalay method; assay type: functional
A549 [18] = test: Synergistic antiproliferative activity against human A549 cells assessed as combination index at 3.125 uM incubated for 72 hrs in presence of 12 uM cisplatin by Chou-Talalay method; assay type: functional

CC[C@H](C)[C@H](NC(C)=O)C(=O)N[C@H](C(=O)N[C@@H](CCC(=O)O)C(=O)N[C@@H](CC(C)C)C(=O)N[C@@H](CCC(=O)O)C(=O)N[C@]1(C)CCC/C=C\CCC[C@](C)(C(=O)N[C@@H](CC(C)C)C(=O)N[C@@H](CCCCN)C(=O)N[C@@H](CC(=O)O)C(=O)N[C@@H](CCC(=O)O)C(=O)N[C@@H](CCCCN)C(=O)N[C@@H](CCC(=O)O)C(N)=O)NC(=O)[C@H](CC(=O)O)NC(=O)[C@H](CC(C)C)NC(=O)[C@H](CC(=O)O)NC1=O)C(C)C (Ac-IVELE[R5]DLD[R5]LKDEKE-NH2; staple (Z) 6-10)
Stability [1]: Unstable
Activity (A549 [2]): Active
Activity (A549 [3]): Active
Activity (A549 [4]): Active
inhibition [5]: Active
Activity (A549 [6]): 24%
Activity (A549 [7]): 34%
Activity (A549 [8]): 50%
Activity (A549 [9]): 64%
Activity (A549 [10]): 74%
Activity (A549 [11]): 93%
Activity (A549 [12]): 100%
CI (A549 [13]): 0.89
CI (A549 [14]): 0.84
CI (A549 [15]): 0.57
CI (A549 [16]): 0.42
CI (A549 [17]): 0.96
CI (A549 [18]): 0.82
